We go through six compounds from US12522596B2, “Compounds as GLP-1R agonists” (Terns Pharmaceuticals, Inc., priority 2021, dated 2026).

The nature of data set [1]: Rat pharmacokinetics, oral dosing. Type of data set: in vivo, Sprague-Dawley rats. As to conditions: rat; for AUC(0-t) / Cmax / half-life: male, Sprague-Dawley, plasma, po, 3 mg/kg, rat plasma. As for the experimental part: Oral dosing: Compounds were formulated at 0.3 mg/mL or 0.6 mg/mL in a solution comprising 5% polyethylene glycol 400 and 95% (12% (w/v) sulfobutyl-β-cyclodextrin in water) (v/v). Formulated compounds were administered to male, 7-11 week old Sprague-Dawley rats by oral gavage at a dose of 3 mg/kg.
Sample collection: Blood collections of about 0.2 mL per time point were performed from jugular vein or other suitable site of each animal, into pre-chilled commercial EDTA-K2 tubes and placed on wet ice until centrifugation. Blood samples were processed for plasma by centrifugation at approximately 4° C., 3,200 g for 10 min. Plasma was collected and transferred into pre-labeled 96 well plate or polypropylene tubes, quick frozen over dry ice and kept at −60° C. or lower until LC-MS/MS analysis.
Data analysis: Plasma concentration versus time data was plotted in graph and analyzed by non-compartmental approaches using the Phoenix WinNonlin 6.3 software program. Related PK parameters were calculated according to dosing route, e.g., CL, Vdss and C0 for intravenous administration, Cmax, Tmax or % F for extravascular administration, and T1/2, AUC(0-t), AUC(0-inf), MRT(0-t), MRT(0-inf) for all routes.

Data set [2] is described as follows: Metabolic stability in rat hepatocytes. Type of data set: in vitro ADME. As to conditions: cryopreserved hepatocytes, 1 μM. The protocol:
(§1) Test compounds were incubated in rat and human hepatocytes and stability was assessed from the substrate […] approach. Test compounds were dissolved in dimethyl sulfoxide (DMSO) to create a 10 mM Stock, and then further diluted to create a 1000× Working Stock of 1 mM with DMSO in 96-well plates for test compounds and the positive control (midazolam). Vials containing cryopreserved hepatocytes were removed from the liquid nitrogen tank and immediately immersed in a 37° C. water bath. The vials were shaken gently until the contents had thawed and were then immediately emptied into 48 mL of pre-warmed HT Medium in a 50 mL conical tube. Cells remaining in the vial were resuspended with 1.0 mL of pre-warmed HT Medium and added to the conical tube. The tube was capped and then gently inverted several times to resuspend the hepatocytes. The cell suspension was centrifuged at 50×g at room temperature for 5 minutes and the supernatant discarded. The cell pellet was loosened by gently swirling the centrifuge tube and was re-suspended in 4 mL of warm Dulbecco's Modified Eagle medium (DMEM). Cell density was determined by a cell counter by Nexcelom, and DMEM medium was added to obtain a target density of 1×10^6 cells/mL. The assay was carried out in 96-well microtiter plates. Test Compounds were incubated at 1 μM with 1×10^6 cells/mL hepatocytes in DMEM for 0, 30, 60, 120 and 240 minutes. The incubation was carried out with gentle shaking at 37° C. under a humid atmosphere of 95% air/5% CO2. The volume of the incubation mixture was 37 μL with a final 0.1% DMSO. At each of the time points, the incubation was stopped by adding 150 μL quenching solution (100% acetonitrile, 0.1% formic acid containing bucetin as an internal standard for positive ESI mode). Subsequently, the mixtures were vortexed for 20 min and centrifuged at 4,000 RPM at 10° C. The supernatant (80 μL) was transferred to a clean 96-well plate and analyzed by LC-MS/MS. Midazolam at 1 μM with a final 0.1% DMSO was included as a positive control to verify assay performance. The percent parent remaining, intrinsic and predicted hepatic clearance and t1/2 were calculated. All samples were analyzed by LC-MS/MS using an AB Sciex API 4000 instrument, coupled to a Shimadzu LC-20AD LC Pump system. Separation was achieved using a Waters Atlantis T3 dC18 reverse phase HPLC column (20 mm×2.1 mm) at a flow rate of 0.5 mL/min. The mobile phase consisted of 0.1% formic acid in water (solvent A) and 0.1% formic acid in 100% acetonitrile (solvent B). Elution conditions are detailed below.
(§2) The ion optics of each test compound were optimized for their declustering potential (DP), […] (CE), collision-cell exit potential (CXP) and used in a selected ion monitoring experiment in the positive ion mode. The peak area ratio of each test compound to internal standard was then evaluated for stability. The extent of metabolism was calculated based on the disappearance of the test compound, compared to its initial concentration. The initial rates of clearance of the test compound were calculated using the linear regression plot of semi-log % remaining of the compound versus time. The elimination rate constant (k) of the linear regression plot was then used to determine t1/2 and the intrinsic clearance (CLint) using the following formula, where Chepatocyte (million cells/mL) is the cell density of the incubation:
(§3) The predicted hepatic clearance (CLhep) was calculated using the well stirred method with the following formula with CLint(in vivo) normalized based on liver weight: […]
(§4) The relevant physiological parameters of liver weight, blood flow, and hepatocellularity for various species are listed below: […]

The nature of data set [3]: Metabolic stability in human hepatocytes. Format: in vitro ADME. As to conditions: cryopreserved hepatocytes; human hepatocytes, 1 μM. As for the experimental part:
as §1, §2, §3, §4

The nature of data set [4]: Caco-2 passive permeability and efflux ratio. The settings on record: human; for efflux ratio at 120 min, 5 μM: pH 7.4, Caco-2, Papp (B-to-A)/Papp (A-to-B), read-out: Efflux Ratio (ER); for Papp at 120 min, 5 μM: Caco-2, 5 μM, pH 7.4, 120 minutes. Format: in vitro ADME. As for the experimental part:
Caco-2 cells (clone C2BBe1) were obtained from American Type Culture Collection (Manassas, VA). Cell monolayers were grown to confluence on collagen-coated, microporous membranes in 12-well assay plates. Details of the plates and their certification are shown below. The permeability assay buffer was Hanks' balanced salt solution containing 10 mM HEPES and 15 mM glucose at a pH of 7.4. The buffer in the receiver chamber also contained 1% bovine serum albumin. The dosing solution concentration was 5 μM of test article in the assay buffer. Cell monolayers were dosed on the apical side (A-to-B) or basolateral side (B-to-A) and incubated at 37° C. with 5% CO2 in a humidified incubator. Samples were taken from the donor and receiver chambers at 120 minutes. Each determination was performed in duplicate. The flux of lucifer yellow was also measured post-experimentally for each monolayer to ensure no damage was inflicted to the cell monolayers during the flux period. All samples were assayed by LC-MS/MS using electrospray ionization. The apparent permeability (Papp) and percent recovery were calculated as follows:
[formula] [formula] where, dCr/dt is the slope of the cumulative receiver concentration versus time in μM s^−1; Vr is the volume of the receiver compartment in cm^3; Vd is the volume of the donor compartment in cm^3; A is the area of the insert (1.13 cm^2 for 12-well); CA is the average of the nominal dosing concentration and the measured 120-minute donor concentration in μM; CN is the nominal concentration of the dosing solution in μM; Cr^final is the cumulative receiver concentration in μM at the end of the incubation period; Cd^final is the concentration of the donor in μM at the end of the incubation period. Efflux ratio (ER) is defined as Papp (B-to-A)/Papp (A-to-B).
In general terms: Caco-2 cells form a polarised layer with tight junctions and transporters.

Molecules are shown by their SMILES.

As usually defined, the AUC(0-t) is exposure summed from dosing to a finite time, without extrapolation to infinity. Low readings indicate less exposure, high ones more exposure. What is called Cmax is the peak of the concentration-time curve. What is called half-life is how long it takes for the measured level to halve. A higher half-life goes with slow decline. Usually CLint scaled stands for the capacity of the preparation to metabolise the compound, expressed as a volume cleared per time. Read a high CLint scaled as rapid turnover. Usually Papp stands for the rate of passage across a membrane or cell layer, normalised by area and donor concentration. In data set [1] (3 mg/kg PO (0.3 mg/mL)), `N#Cc1ccc(COc2cccc(C3CCN(Cc4nc5ccc(C(=O)O)cc5n4Cc4cncs4)CC3)n2)c(F)c1` [Compound 2] gave an AUC(0-t) of 384 ± 182 ng·h/mL, a peak concentration (Cmax) of 117 ± 61 ng/mL and a half-life of 3.3 ± 0.44 h. In data set [1] (3 mg/kg PO (0.6 mg/mL)), this compound had an AUC(0-t) of 525 ± 138 ng·h/mL, a peak concentration (Cmax) of 491 ± 256 ng/mL and a half-life of 2.66 ± 1.74 h. Further, the “PK properties relative to Reference Compound A” value in data set [1] (dosed orally) is reported as “significantly enhanced PK properties”. Besides, the “higher AUC relative to Reference Compound A” value in data set [1] (oral administration) is reported as 4-6 fold. Besides, in data set [2], the CLint scaled at 1 μM was found to be 42.6 ± 2.46 mL/min/kg and the half-life at 1 μM is 1.32 ± 0.083 h. In data set [3], this compound had a CLint scaled at 1 μM of 15.5 ± 0.82 mL/min/kg and a half-life at 1 μM of 2.61 ± 0.154 h. For the same compound, in data set [4], the efflux ratio at 120 min, 5 μM came out at 1.66 and the Papp at 120 min, 5 μM was determined as 31.5 ×10⁻⁶ cm/s.
For `Cc1ncsc1Cn1c(CN2CCC(c3cccc(OCc4ccc(C#N)cc4F)n3)CC2)nc2ccc(C(=O)O)cc21` [Compound 4], in data set [1] (3 mg/kg PO (0.3 mg/mL)), the AUC(0-t) amounted to 28.3 ± 21.7 ng·h/mL, the concentration peaked (Cmax) at 21.6 ± 9.8 ng/mL and the half-life is 0.96 ± 0.33 h. In data set [2], this compound came in with a CLint scaled at 1 μM of 36 ± 1.36 mL/min/kg and a half-life at 1 μM of 1.62 ± 0.0477 h. In data set [3], this compound registered a CLint scaled at 1 μM of 24.3 ± 0.74 mL/min/kg and a half-life at 1 μM of 1.66 ± 0.0508 h. In addition, in data set [4], the efflux ratio at 120 min, 5 μM came out at 0.975 and the apparent permeability coefficient (Papp) at 120 min, 5 μM worked out at 49.9 ×10⁻⁶ cm/s.
Consider `N#Cc1ccc(COc2ccnc(C3CCN(Cc4nc5ccc(C(=O)O)cc5n4Cc4cncs4)CC3)n2)c(F)c1` [Compound 20], for which, in data set [2], the CLint scaled at 1 μM was 38.9 ± 1.14 mL/min/kg and the half-life at 1 μM was found to be 1.49 ± 0.044 h. In data set [3], this compound returned a CLint scaled at 1 μM of 10.6 ± 0.66 mL/min/kg and a half-life at 1 μM of 3.82 ± 0.241 h. In data set [4], the efflux ratio at 120 min, 5 μM was found to be 9.77 and the Papp at 120 min, 5 μM was determined as 2.82 ×10⁻⁶ cm/s.
Turning to `N#Cc1ccc(COc2cccc(N3CCN(Cc4nc5ccc(C(=O)O)cc5n4Cc4cncs4)CC3)n2)c(F)c1` [Compound 30], in data set [2], the CLint scaled at 1 μM was found to be 32.5 ± 0.73 mL/min/kg and the half-life at 1 μM came out at 1.71 ± 0.0383 h. In data set [3], this compound came in with an intrinsic metabolic clearance (CLint scaled) at 1 μM of 7.18 ± 0.31 mL/min/kg and a half-life at 1 μM of 5.58 ± 0.244 h. Moreover, in data set [4], the efflux ratio at 120 min, 5 μM came to 2.14 and the Papp at 120 min, 5 μM is 9.41 ×10⁻⁶ cm/s.
In data set [2], `CC1(c2ccc(C#N)cc2F)Oc2cccc(C3CCN(Cc4nc5ccc(C(=O)O)cc5n4Cc4cncs4)CC3)c2O1` (stereo not shown) [Compound 31] showed a CLint scaled at 1 μM of 30.2 ± 1.5 mL/min/kg and a half-life at 1 μM of 1.83 ± 0.0907 h. Moreover, in data set [3], the CLint scaled at 1 μM is 17.5 ± 1.33 mL/min/kg and the half-life at 1 μM was 2.29 ± 0.174 h. In data set [4], the efflux ratio at 120 min, 5 μM stood at 1.31 and the Papp at 120 min, 5 μM came to 16.8 ×10⁻⁶ cm/s.
For the compound `N#Cc1ccc(COc2cccc(C3CCN(Cc4nc5ccc(C(=O)O)cc5n4C[C@@H]4CCO4)CC3)n2)c(F)c1` [Reference Compound A, reference compound], in data set [1] (3 mg/kg PO (0.3 mg/mL)), the AUC(0-t) came to 60.6 ± 9.01 ng·h/mL, the concentration peaked (Cmax) at 37.7 ± 8.09 ng/mL and the half-life is 2 ± 1.07 h. Further, in data set [1] (3 mg/kg PO (0.6 mg/mL)), the AUC(0-t) was found to be 121 ± 36.9 ng·h/mL, the Cmax was 102 ± 57 ng/mL and the half-life was 1.68 ± 0.44 h. In data set [2], the CLint scaled at 1 μM came to 48.2 ± 1.33 mL/min/kg and the half-life at 1 μM worked out at 1.21 ± 0.0425 h. In data set [3], this compound yielded an intrinsic clearance (CLint scaled) at 1 μM of 7.18 ± 0.45 mL/min/kg and a half-life at 1 μM of 5.79 ± 0.379 h. Moreover, the Papp at 120 min, 5 μM in data set [4] was determined as 15.5 ×10⁻⁶ cm/s.
